Measured values from ChEMBL document CHEMBL1133687, “Structure-based design of novel bicyclic nonpeptide inhibitors for the src SH2 domain” (J Med Chem, 2000).

molecular target: Proto-oncogene tyrosine-protein kinase Src (Homo sapiens, UniProt P12931); assay: Binding affinity against Src SH2 domain in competitive fluorescence polarization assay
Sequence (P12931 2-536 limits assumed): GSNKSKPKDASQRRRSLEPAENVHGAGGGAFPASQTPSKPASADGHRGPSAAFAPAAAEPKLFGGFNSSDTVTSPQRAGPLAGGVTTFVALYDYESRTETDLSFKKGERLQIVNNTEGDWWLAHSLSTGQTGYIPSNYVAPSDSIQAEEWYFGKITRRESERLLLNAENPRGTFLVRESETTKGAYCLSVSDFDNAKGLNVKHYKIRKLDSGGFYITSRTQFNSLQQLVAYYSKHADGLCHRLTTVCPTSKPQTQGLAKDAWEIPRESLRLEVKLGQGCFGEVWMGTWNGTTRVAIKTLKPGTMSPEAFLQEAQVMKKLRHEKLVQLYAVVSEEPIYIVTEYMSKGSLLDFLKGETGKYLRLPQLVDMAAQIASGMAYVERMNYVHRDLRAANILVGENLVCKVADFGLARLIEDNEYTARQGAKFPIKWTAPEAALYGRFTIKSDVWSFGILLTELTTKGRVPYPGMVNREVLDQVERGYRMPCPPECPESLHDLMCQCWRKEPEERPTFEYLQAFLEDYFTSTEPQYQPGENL

SMILES | IC50 [nM]
CC(=O)N[C@@H](Cc1ccc(OP(=O)(O)O)cc1)C(=O)N[C@H]1CCCCc2cc(OCC3CCCCC3)c(C(N)=O)cc21 | 100
CC(=O)N[C@@H](Cc1ccc(OP(=O)(O)O)cc1)C(=O)N[C@H]1CCCOc2cc(OCC3CCCCC3)c(C(N)=O)cc21 | 200
CC(=O)N[C@@H](Cc1ccc(OP(=O)(O)O)cc1)C(=O)N[C@@H]1CCCCc2cc(OCC3CCCCC3)c(C(N)=O)cc21 | 8100
CC(=O)N[C@@H](Cc1ccc(OP(=O)(O)O)cc1)C(=O)N[C@@H]1CCCOc2cc(OCC3CCCCC3)c(C(N)=O)cc21 | 1600
CC[C@H](C)[C@H](NC(=O)[C@H](CCC(=O)O)NC(=O)[C@H](CCC(=O)O)NC(=O)[C@@H](N)Cc1ccc(OP(=O)(O)O)cc1)C(=O)O | 5600
